Source: patent US20100184026A1, “Companion Diagnostic Assays For Endothelin Receptor Antagonists” (ABBOTT LABORATORIES, priority 2009, published 2010)

Tests used:
[1] = system: Mouse preosteoblastic MC3T3 cells; experiment: Microarray analysis of gene expression in ET-treated mouse osteoblasts; assay type: cell-based; conditions: for # Genes Blocked by ABT-627, percent of genes induced by ET: drug added 1 hour prior to ET; for Induced by ET (number of genes): genes regulated ≧1.5-fold, p ≦0.01
Excerpt: (§1) Mouse MC3T3 pre-osteoblastic cells (subclone 4) were purchased from ATCC (Manassis, Va.) and propagated in αMEM media without ascorbic acid (Invitrogen, Carlsbad, Calif.) supplemented with 10% FBS (Invitrogen). Human Mesenchymal Stem Cells (MSCs) were purchased from Cambrex (Walkersville, Md.) and propagated according in MSCGM™ media (Cambrex). To initiate differentiation of the MSC into human osteoblasts, the growth media was replaced by osteogenic differentiation medium (OGM, Cambrex).
(§2) Mouse preosteoblastic MC3T3 cells as well as primary human osteoblasts were treated with ET, from Sigma (St. Louis, Mo.), for 2, 4, and 6 hours in the absence or presence of the ETa receptor antagonist ABT-627, from Abbott Laboratories (Abbott Park, Ill.). The drug was added 1 hour prior to the addition of ET.
(§3) Total RNA was extracted from the treated cell lines and purified on RNeasy columns (Qiagen, Valencia, Calif.). Labeled cRNA was prepared according to the microarray manufacturer Affymetrix's protocol and hybridized to either mouse 430A 2.0 or human U133A 2.0 arrays (Affymetrix, Santa Clara, Calif.). Gene expression fold changes for each treatment were calculated by combining three biological replicates for each treatment using the Rosetta Resolver's Affymetrix error model software and building a ratio from the resulting values. All genes regulated ≧1.5-fold with a p-value of ≦0.01 were retained for further analysis. Conventional two-dimensional clustering was then performed by using the agglomerative hierarchical clustering algorithm. The Euclidean distance was used as the similarity metric.

osteoblastic metastases = conditions: Yin et al. 2003; cited from earlier work
[2] = system: mouse MC3T3 osteoblast cell line; experiment: ELISA assays of secreted PAI-1, OPG and IL-6 in osteoblast supernatants; assay type: cell-based
Excerpt: as §1
Mouse MC3T3 osteoblast cells were propagated as set out above, and at times indicated were harvested and spun at 250×g for 10 minutes at room temperature. The clarified supernatants were aliquoted and frozen until analyzed. 200 microliters of each sample was tested in quadruplicate by commercially available ELISA assay kits for PAI-1 (Molecular Innovations, Southfield, Mich.), OPG (Biomedica, San Diego, Calif.) and IL-6 (Ray Biotech, Norcross, Ga.). The ELISA tests were performed according to the manufacturer's instructions. Data from these tests are shown in FIG. 1 (PAI-1), FIG. 2 (OPG) and FIG. 3 (IL-6).

[3] = system: metastatic hormone-refractory prostate cancer; conditions: patients with metastatic hormone-refractory prostate cancer; Nelson et al. 2003; cited from earlier work
[4] = system: primary human osteoblasts; experiment: Microarray analysis of gene expression in ET-treated primary human osteoblasts; assay type: cell-based; conditions: ET-1 treatment
Excerpt: as §1, §2
as §3, with “All genes regulated ≧1.5-fold with a p-value of ≦0.01 were retained for further analysis. Conventional two-dimensional clustering was then performed by using the agglomerative hierarchical clustering algorithm. The Euclidean distance was used as the similarity metric.” left out

[5] = endothelin in the presence of ABT-627

CCCCN(CCCC)C(=O)CN1C[C@H](c2ccc3c(c2)OCO3)[C@@H](C(=O)O)[C@@H]1c1ccc(OC)cc1 [ABT-627, (2R,3R,4S)-(+)-2-(4-Methoxyphenyl)-4-(1,3-benzodioxol-5-yl)-1-(N,N-di(n-butyl)aminocarbonylmethyl)-pyrrolidine-3-carboxylic acid]
# Genes Blocked by ABT-627, percent of genes induced by ET ([1]; 2 hr ET): (96%)
# Genes Blocked by ABT-627, percent of genes induced by ET ([1]; 4 hr ET): (83%)
# Genes Blocked by ABT-627, percent of genes induced by ET ([1]; 6 hr ET): (97%)
Induction by ET of suppression-of-apoptosis genes (Nur77, Flt1, NFATc1) ([1]; ET in presence of ABT-627): the induction was blocked
Effect of pre-treatment on ET gene induction events ([1]; all three timepoints (2, 4, 6 hours), pre-treatment before ET): abrogated almost all of these gene induction events
Gene expression changes caused by antagonist alone ([1]; antagonist alone, no ET): very few gene expression changes
Induction by ET-1 of osteoblastic maturation genes (OPG, COX-2, Dmp1, Tgfbi, CTGF, Klf10) ([1]; pre-treatment with ABT-627): blocked
Metastatic growth (osteoblastic metastases): suppressed
Endothelin-induced expression of IL-6 (ELISA) [2, 5]: substantial suppression
Endothelin-induced expression of OPG (ELISA) [2, 5]: substantial suppression
Endothelin-induced expression of PAI-1 (ELISA) [2, 5]: substantial suppression
Time to disease progression [3]: extended

CC[C@H](C)[C@H](NC(=O)[C@H](CC(=O)O)NC(=O)[C@H](CC(C)C)NC(=O)[C@H](Cc1c[nH]cn1)NC(=O)[C@@H]1CSSC[C@H](N)C(=O)N[C@@H](CO)C(=O)N[C@H]2CSSC[C@H](NC(=O)[C@H](CCC(=O)O)NC(=O)[C@H](CCCCN)NC(=O)[C@H](CC(=O)O)NC(=O)[C@H](CCSC)NC(=O)[C@H](CC(C)C)NC(=O)[C@H](CO)NC(=O)[C@H](CO)NC2=O)C(=O)N[C@@H](C(C)C)C(=O)N[C@@H](Cc2ccc(O)cc2)C(=O)N[C@@H](Cc2ccccc2)C(=O)N1)C(=O)N[C@H](C(=O)N[C@@H](Cc1c[nH]c2ccccc12)C(=O)O)[C@@H](C)CC [ET]
# Genes Down-regulated by ET ([1]; 2 hr ET treatment): 423
Induced by ET (number of genes) ([1]; 2 hr ET treatment): 608
# Genes Down-regulated by ET ([1]; 4 hr ET treatment): 295
Induced by ET (number of genes) ([1]; 4 hr ET treatment): 472
# Genes Down-regulated by ET ([1]; 6 hr ET treatment): 95
Induced by ET (number of genes) ([1]; 6 hr ET treatment): 194
Expression of suppression-of-apoptosis genes (Nur77, Flt1, NFATc1) ([1]; ET treatment): induced
Expression of genes coding for secreted proteins (PAI-1, uPA, TGFbeta2, IL-6, IL-8) ([1]; mouse osteoblasts, ET-1 treatment): strongly upregulated
Expression of genes coding for secreted proteins (PAI-1, uPA, TGFbeta2, IL-6, IL-8) [4]: strongly upregulated
Expression of IL-6 (ELISA) ([2]; treatment with endothelin): strongly induced
Expression of OPG (ELISA) ([2]; treatment with endothelin): strongly induced
Expression of PAI-1 (ELISA) ([2]; treatment with endothelin): strongly induced
